test system: P. falciparum NF54 asexual blood-stage parasites; assay: 72-h asexual blood-stage replication assay (SYBR Green); assay type: cell-based, Plasmodium falciparum; conditions: asexual blood stages NF54 parasites; read-out: IC50
Procedure: Replication assays were performed using a SYBR Green method as described previously. Briefly, asynchronous parasites were diluted to 0.83% parasitemia, 3% hematocrit in 30 µl medium, and added to 30 µl of diluted compounds in medium (0.1% DMSO final concentration) in black 384-wells plates. After a 72-h incubation, 30 µl of SYBR Green diluted in lysis buffer was added according to the manufacturer’s protocol (Life Technologies). Fluorescence intensity was measured on a BioTek Synergy 2 Plate Reader after 1-h incubation and was normalized to a DMSO control (100% growth) and DHA- or epoxomicin-treatment (no growth). […] Parasite survival was assessed by flow cytometry on an Accuri C6 (BD Biosciences) with BD C6 Plus software using SYBR Green and MitoTracker Deep Red FM (Life Technologies) as nuclear stain and vital dye, respectively, and data were analyzed using FlowJo (10.5.0). […] Luminescence was measured after 72 h using the Renilla-Glo(R) Luciferase Assay System (Promega E2750) and the GlomAX® Discover Multimode Microplate Reader (Promega). The luminescence values were normalized to DMSO vehicle (100% growth) and 200 nM chloroquine-treated (no growth) samples as controls.
Dose-response assays were analyzed by a nonlinear regression using a four-parameter model and the least squares method to find the best fit. One-way Analysis of variance (ANOVA) was performed using the Bonferroni’s Multiple Comparison Test. For the majority of experiments, 2-4 biological replicates were performed. Typically, 2 replicates were performed for screening activities, and a minimum of 3 replicates are performed for other experiments unless stated otherwise.

| SMILES | IC50 |
| --- | --- |
| C[C@@H](CNC(=O)[C@H](O)C(C)(C)CO)NC(=O)c1ccc(C#N)cc1 [MMV884961] | 535 nM |
| C[C@@H](CNC(=O)[C@H](O)C(C)(C)CO)NC(=O)c1cc(Cl)c(Cl)cc1F [MMV893655] | 19.7 nM |
| COc1ccccc1C(=O)N[C@@H](C)CNC(=O)[C@H](O)C(C)(C)CO [MMV892812] | > 10000 nM |
| C[C@@H](CNC(=O)[C@H](O)C(C)(C)CO)NC(=O)c1cc[nH]c1 [MMV893376] | 1800 nM |
| C[C@@H](CNC(=O)[C@H](O)C(C)(C)CO)NC(=O)c1cccc(F)n1 [MMV892814] | > 10000 nM |
| C[C@@H](CNC(=O)[C@H](O)C(C)(C)CO)NC(=O)c1coc2ccccc12 [MMV893337] | 3.9 nM |
| Cc1cccc(C(=O)N[C@@H](C)CNC(=O)[C@H](O)C(C)(C)CO)c1 [MMV1542099] | 22 nM |
| Cc1cc(C(=O)N[C@@H](C)CNC(=O)[C@H](O)C(C)(C)CO)c(F)cc1F [MMV893115] | 66 nM |
| CC(C)(CNC(=O)[C@H](O)C(C)(C)CO)NC(=O)CCc1ccccc1F [MMV689455] | 1190 nM |
| C[C@@H](CNC(=O)[C@H](O)C(C)(C)CO)NC(=O)c1ccc(F)c(Cl)c1 [MMV977407] | 3.4 nM |
| CCC(CC)(CO)[C@@H](O)C(=O)NC[C@H](C)NC(=O)CCc1ccccc1F [MMV884964] | > 1000 nM |
| C[C@@H](CNC(=O)[C@H](O)C(C)(C)CO)NC(=O)c1cccc(F)c1F [MMV1576723] | 32.7 nM |
| C[C@@H](CNC(=O)[C@H](O)C(C)(C)CO)NC(=O)c1cccc(N(C)C)c1 [MMV884970] | > 10000 nM |
| C[C@@H](CNC(=O)[C@H](O)C(C)(C)CO)NC(=O)c1ccoc1 [MMV893339] | 42 nM |
| Cc1ccc(C(=O)N[C@@H](C)CNC(=O)[C@H](O)C(C)(C)CO)cc1 [MMV1542100] | 85 nM |
| Cc1ccccc1C(=O)N[C@@H](C)CNC(=O)[C@H](O)C(C)(C)CO [MMV1542005] | > 10000 nM |
| C[C@@H](CNC(=O)[C@H](O)C(C)(C)CO)NC(=O)c1ccc(F)cc1 [MMV1542002] | 82 nM |
| C[C@@H](CNC(=O)[C@H](O)C(C)(C)CO)NC(=O)c1ccc(Cl)c(F)c1 [MMV1576725] | 56 nM |
| C[C@@H](CNC(=O)[C@H](O)C(C)(C)CO)NC(=O)c1cc2ccccc2o1 [MMV893335] | 12.5 nM |
| CC[C@@H](CNC(=O)[C@H](O)C(C)(C)CO)NC(=O)CCc1ccccc1F [MMV692676] | 122 nM |
| C[C@@H](CNC(=O)[C@H](O)C(C)(C)CO)NC(=O)c1ccc(F)c(F)c1 [MMV1576731] | 4.6 nM |
| C[C@@H](CNC(=O)[C@H](O)C(C)(C)CO)NC(=O)c1cc2ccccc2s1 [MMV893336] | 19.9 nM |
| C[C@@H](CNC(=O)[C@H](O)C(C)(C)CO)NC(=O)c1cccc(C#N)c1F [MMV977410] | 19 nM |
| C[C@@H](CNC(=O)[C@H](O)C(C)(C)CO)NC(=O)c1cc2ccccc2[nH]1 [MMV893121] | 53 nM |
| C[C@@H](CNC(=O)[C@H](O)C(C)(C)CO)NC(=O)c1ccc[nH]1 [MMV893345] | > 10000 nM |
| C[C@@H](CNC(=O)[C@H](O)C(C)(C)CO)NC(=O)c1cccc(S(C)(=O)=O)c1 [MMV884969] | > 10000 nM |
| C[C@@H](CNC(=O)[C@H](O)C(C)(C)CO)NC(=O)c1ccsc1 [MMV893340] | 14.6 nM |

| SMILES | IC50 |
| --- | --- |
| C[C@H](CNC(=O)[C@@H](O)C(C)(C)CO)NC(=O)CCc1ccccc1F [MMV884968] | > 1000 nM |
| C[C@@H](CNC(=O)[C@H](O)C(C)(C)CO)NC(=O)c1ccc(C(F)(F)F)cc1 [MMV892612] | 132 nM |
| C[C@@H](CNC(=O)[C@H](O)C(C)(C)CO)NC(=O)c1cccc(Cl)c1F [MMV977411] | 12 nM |
| COc1ccc(C(=O)N[C@@H](C)CNC(=O)[C@H](O)C(C)(C)CO)cc1 [MMV892810] | 344 nM |
| C[C@@H](CNC(=O)[C@H](O)C(C)(C)CO)NC(=O)c1c(F)cccc1F [MMV693185] | 478 nM |
| C[C@@H](CNC(=O)[C@H](O)C(C)(C)CO)NC(=O)c1ccccc1Cl [MMV892807] | > 10000 nM |
| C[C@@H](CNC(=O)[C@H](O)C(C)(C)CO)NC(=O)c1ccc(Cl)cc1 [MMV892809] | 103 nM |
| C[C@@H](CNC(=O)[C@H](O)C(C)(C)CO)NC(=O)c1csc2ccccc12 [MMV893338] | 195 nM |
| C[C@@H](CNC(=O)[C@H](O)C(C)(C)CO)NS(=O)(=O)CCc1ccccc1 [MMV692748] | > 10000 nM |
| C[C@@H](CNC(=O)[C@H](O)C(C)(C)CO)NC(=O)c1cc(Cl)c(F)cc1F [MMV692009] | 2.3 nM |
| C[C@@H](CNC(=O)[C@H](O)C(C)(C)CNS(C)(=O)=O)NC(=O)CCc1ccccc1F [MMV1545779] | > 1000 nM |
| C[C@@H](CNC(=O)[C@H](O)C(C)(C)CO)NC(=O)c1ccc(F)c(C#N)c1 [MMV977409] | 84 nM |
| C[C@@H](CNC(=O)[C@H](O)C(C)(C)CO)NC(=O)c1c[nH]c2ccccc12 [MMV893375] | 41 nM |
| C[C@@H](CNC(=O)[C@H](O)C(C)(C)CO)NC(=O)c1ccccc1F [MMV154200] | 41 nM |
| C[C@@H](CNC(=O)[C@H](O)C(C)(C)CO)NC(=O)c1ccccc1C(F)(F)F [MMV892613] | > 10000 nM |
| C[C@H](CNC(=O)[C@H](O)C(C)(C)CO)NC(=O)CCc1ccccc1F [MMV689260] | 210 nM |
| COc1cccc(C(=O)N[C@@H](C)CNC(=O)[C@H](O)C(C)(C)CO)c1 [MMV892811] | 32 nM |
| C[C@@H](CNC(=O)[C@@H](O)C(C)(C)CO)NC(=O)CCc1ccccc1F [MMV884787] | 235 nM |
| C[C@@H](CNC(=O)C(=O)C(C)(C)CO)NC(=O)CCc1ccccc1F [MMV1545786] | 1000 nM |
| C[C@@H](CNC(=O)[C@H](O)C(C)(C)CO)NC(=O)c1cccs1 [MMV893344] | 18.2 nM |
| CC(CNC(=O)C(C)(O)C(C)(C)CO)NC(=O)CCc1ccccc1F (mixture of isomers) [MMV1545785] | 1000 nM |
| C[C@@H](CNC(=O)[C@H](O)C(C)(C)CO)NC(=O)c1cc(Cl)ccc1F [MMV1576728] | 2.6 nM |
| C[C@@H](CNC(=O)[C@H](O)C(C)(C)CO)NC(=O)c1cccc(Cl)c1 [MMV892808] | 2.3 nM |
| C[C@@H](CNC(=O)[C@H](O)C(C)(C)CO)NC(=O)c1cccc(C(F)(F)F)c1 [MMV892614] | 143 nM |
| C[C@@H](CNC(=O)[C@H](O)C(C)(C)CO)c1nnc(CCc2ccccc2F)[nH]1 [MMV884788] | 554 nM |
| CC(C)(CNC(=O)CCc1ccccc1F)NC(=O)[C@H](O)C(C)(C)CO [MMV689261] | > 10000 nM |
| C[C@@H](CNC(=O)[C@H](O)C(C)(C)CO)NC(=O)c1cc(F)ccc1F [MMV1576724] | 7 nM |

test system: TA98, TA100, TA102, TA1535, TA1537; assay: not given; conditions: TA98, -S-9, 5 ug/plate, positive control
Procedure: Safety studies were performed by commercial services using their standard protocols. […] Genotoxicity was investigated using the Ames test (Bacterial Reverse Mutation Assay) (Covance Laboratories Ltd, North Yorkshire, England). In vitro mammalian cell micronucleus screening assay was studied in human peripheral blood lymphocytes (BioReliance Corporation, Rockville, USA). Cardiotoxicity was determined against the hERG channel in an automated patch clamp assay using the Qpatch or against the hNaV 1.5, hKV 1.5 and hCaV 1.2 using a manual patch-clamp technique (Metrion Biosciences, Cambridge, UK). Cytotoxicity in human and rat primary hepatocytes was assessed using the CellTiter-Blue assay performed by commercial services (KaLy-Cell). The viability of HepG2 cells was monitored through the addition of 1 mM resazurin. Following 6 h incubation, the relative amount of reduced resazurin was detected in a fluorimeter and compared to the assay controls (vehicle: 0.1% DMSO and positive control: 10 µM puromycin).

| SMILES | Fold Increase | Mean (Revertant Numbers Per Plate) |
| --- | --- | --- |
| O=[N+]([O-])c1ccc2c(c1)Cc1ccccc1-2 [Compound 2NF] | 49.1 | 1375.7 |

same assay, conditions: TA100, +S-9, 5 ug/plate, positive control

| SMILES | Fold Increase | Mean (Revertant Numbers Per Plate) |
| --- | --- | --- |
| Nc1ccc2cc3ccccc3cc2c1 [AAN] | 21.6 | 2606 |

same assay, conditions: TA100, -S-9, 2 ug/plate, positive control

| SMILES | Fold Increase | Mean (Revertant Numbers Per Plate) |
| --- | --- | --- |
| [N-]=[N+]=[N-].[Na+] [NaN3] | 9.7 | 845 |

same assay, conditions: TA102, +S-9, 20 ug/plate, positive control

| SMILES | Fold Increase | Mean (Revertant Numbers Per Plate) |
| --- | --- | --- |
| Nc1ccc2cc3ccccc3cc2c1 [AAN] | 11 | 2462 |

same assay, conditions: TA102, -S-9, 0.2 ug/plate, positive control

| SMILES | Fold Increase |
| --- | --- |
| CO[C@@]12[C@H](COC(N)=O)C3=C(C(=O)C(C)=C(N)C3=O)N1C[C@@H]1N[C@@H]12 [MMC] | 3.3 |

same assay, conditions: TA1535, +S-9, 5 ug/plate, positive control

| SMILES | Fold Increase | Mean (Revertant Numbers Per Plate) |
| --- | --- | --- |
| Nc1ccc2cc3ccccc3cc2c1 [AAN] | 7.5 | 173.3 |

same assay, conditions: TA1535, -S-9, 2 ug/plate, positive control

| SMILES | Fold Increase | Mean (Revertant Numbers Per Plate) |
| --- | --- | --- |
| [N-]=[N+]=[N-].[Na+] [NaN3] | 26.6 | 672.7 |

same assay, conditions: TA1537, +S-9, 5 ug/plate, positive control

| SMILES | Fold Increase | Mean (Revertant Numbers Per Plate) |
| --- | --- | --- |
| Nc1ccc2cc3ccccc3cc2c1 [AAN] | 39.7 | 277.7 |

same assay, conditions: TA1537, -S-9, 50 ug/plate, positive control

| SMILES | Fold Increase | Mean (Revertant Numbers Per Plate) |
| --- | --- | --- |
| Nc1c2ccccc2nc2ccccc12 [AAC] | 54.9 | 384.3 |
